Measurements taken from ChEMBL document CHEMBL1201862, “PubChem BioAssay data set” (2004).
Activity calls are given as the source filed them.

Legend:
Cytochrome P450 2C19 = Cytochrome P450 2C19 (Homo sapiens, UniProt P33261); test: Cytochrome panel assay with activity outcomes. Panel member name: p450-cyp2c19 Compounds with AC50 equal or less than 10 uM are considered active; assay type: functional
Cytochrome P450 2D6 = Cytochrome P450 2D6 (Homo sapiens, UniProt P10635);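 note: CYP2D6 member of a cytochrome P450 panel assay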
[1] = T. cruzi infection blockers in NIH3T3 cells – beta-gal luminescence, NIH3T3 host cells, confirmation (AID 2630); assay type: functional, cell-based; conditions: Mus musculus
[2] = Trypanosoma cruzi growth suppression in host cells – NIH3T3 host cells, beta-gal luminescence, confirmation (AID 2044); assay type: functional, cell-based;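 note: intracellular parasites grown in NIH/3T3 mouse fibroblasts as host cells; luminescent beta-galactosidase reporter signal from transgenic T. cruzi replicating inside host cells; inhibitors lower the luminescence signal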
[3] = NIH3T3 cell viability loss – ATP luminescence, mouse fibroblasts, counter-screen, dose response (AID 2010); assay type: functional, cell-based;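 note: cells exposed to compound for about 90 hours before reading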
[4] = Luminescence Cell-Based/Microorganism Confirmation at Dose of Inhibitors of Trypanosoma cruzi Infection. [Related pubchem assays: 1885, 1968 ]; assay type: functional
Cytochrome P450 3A4 = Cytochrome P450 3A4 (Homo sapiens, UniProt P08684);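 note: CYP3A4 tested as one member of a cytochrome P450 panel screen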
Chain of Cytochrome P450 3A4 (P08684 whole entry): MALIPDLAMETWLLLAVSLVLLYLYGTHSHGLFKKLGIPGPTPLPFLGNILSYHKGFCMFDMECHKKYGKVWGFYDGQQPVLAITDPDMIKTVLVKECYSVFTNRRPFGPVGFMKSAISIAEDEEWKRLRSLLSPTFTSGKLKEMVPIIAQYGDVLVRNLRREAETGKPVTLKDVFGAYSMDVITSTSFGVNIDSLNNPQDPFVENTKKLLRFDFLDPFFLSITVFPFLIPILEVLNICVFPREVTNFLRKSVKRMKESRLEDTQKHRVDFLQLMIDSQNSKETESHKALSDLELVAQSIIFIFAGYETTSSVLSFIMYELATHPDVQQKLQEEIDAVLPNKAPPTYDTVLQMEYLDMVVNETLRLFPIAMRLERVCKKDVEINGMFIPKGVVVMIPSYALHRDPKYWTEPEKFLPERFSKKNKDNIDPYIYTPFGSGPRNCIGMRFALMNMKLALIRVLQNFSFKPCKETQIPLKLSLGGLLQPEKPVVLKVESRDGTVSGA

Cytochrome P450 1A2 = target: T1, Cytochrome P450 1A2 (Homo sapiens, UniProt P05177);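 note: PubChem cytochrome P450 panel assay, CYP1A2 panel member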
T1 sequence (P05177 whole entry): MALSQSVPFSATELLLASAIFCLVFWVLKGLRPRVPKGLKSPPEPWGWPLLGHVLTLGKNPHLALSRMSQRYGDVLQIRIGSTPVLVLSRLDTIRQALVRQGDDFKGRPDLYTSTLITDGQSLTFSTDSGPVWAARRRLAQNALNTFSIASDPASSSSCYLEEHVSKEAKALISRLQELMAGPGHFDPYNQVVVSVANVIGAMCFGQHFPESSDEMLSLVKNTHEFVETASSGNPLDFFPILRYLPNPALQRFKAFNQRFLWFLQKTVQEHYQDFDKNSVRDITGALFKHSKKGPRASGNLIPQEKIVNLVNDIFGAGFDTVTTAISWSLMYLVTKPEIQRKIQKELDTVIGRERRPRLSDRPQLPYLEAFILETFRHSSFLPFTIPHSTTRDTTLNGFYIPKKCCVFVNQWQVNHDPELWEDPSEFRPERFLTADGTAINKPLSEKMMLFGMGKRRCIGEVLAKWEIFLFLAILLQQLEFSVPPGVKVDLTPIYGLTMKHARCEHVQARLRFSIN

Coagulation factor XII = target: T2, Coagulation factor XII (Homo sapiens, UniProt P00748); test: activated coagulation factor XII inhibitor potency, concentration-effect curve, cell-free (AID 716); assay type: functional
T2 sequence (P00748 whole entry): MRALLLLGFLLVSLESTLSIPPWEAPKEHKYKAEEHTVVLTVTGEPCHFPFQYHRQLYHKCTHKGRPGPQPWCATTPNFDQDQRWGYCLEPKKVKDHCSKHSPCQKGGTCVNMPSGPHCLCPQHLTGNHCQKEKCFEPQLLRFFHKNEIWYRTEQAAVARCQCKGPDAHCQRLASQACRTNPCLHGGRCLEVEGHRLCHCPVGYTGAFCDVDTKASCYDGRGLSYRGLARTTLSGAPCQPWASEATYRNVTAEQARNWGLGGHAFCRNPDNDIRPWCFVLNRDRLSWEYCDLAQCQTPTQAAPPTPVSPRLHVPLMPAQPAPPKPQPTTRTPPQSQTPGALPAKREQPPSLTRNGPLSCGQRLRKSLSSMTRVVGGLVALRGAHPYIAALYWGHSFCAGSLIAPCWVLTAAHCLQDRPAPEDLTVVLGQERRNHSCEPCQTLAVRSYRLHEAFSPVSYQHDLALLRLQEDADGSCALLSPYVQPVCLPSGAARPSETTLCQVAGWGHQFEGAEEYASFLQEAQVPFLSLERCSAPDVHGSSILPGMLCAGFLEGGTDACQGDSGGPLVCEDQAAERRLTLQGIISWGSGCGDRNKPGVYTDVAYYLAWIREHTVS

Integrin alpha-L = Integrin alpha-L (Mus musculus, UniProt P24063); test: modulators of CD8 T cell-vesicle binding, dose response, powder samples, mouse 2C CD8+ cells (AID 504565); assay type: functional
[5] = target: T3, Type-1 angiotensin II receptor (Homo sapiens, UniProt P30556); test: agonist activity at AGTR1 – cell-based, uHTS hits, selectivity assay for APJ receptor agonist project, dose response (AID 488865); assay type: functional;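 note: beta-arrestin recruitment to AT1 measured by enzyme fragment complementation luminescence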
T3 sequence (P30556 whole entry): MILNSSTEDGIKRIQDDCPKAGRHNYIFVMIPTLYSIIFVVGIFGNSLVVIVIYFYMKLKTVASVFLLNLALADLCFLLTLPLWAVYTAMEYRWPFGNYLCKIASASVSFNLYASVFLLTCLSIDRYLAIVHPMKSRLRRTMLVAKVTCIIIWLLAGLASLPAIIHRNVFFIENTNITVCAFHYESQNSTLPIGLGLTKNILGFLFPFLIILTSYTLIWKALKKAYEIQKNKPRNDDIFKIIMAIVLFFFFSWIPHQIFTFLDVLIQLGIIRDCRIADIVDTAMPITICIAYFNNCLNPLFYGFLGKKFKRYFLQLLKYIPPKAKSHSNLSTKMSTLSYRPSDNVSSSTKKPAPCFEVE

[6] = THP-1 cell cytotoxicity, dose response, cytotoxicity control for non-replicating M. tuberculosis project (AID 489025); assay type: functional
[7] = NIH-3T3 fibroblast cytotoxicity, dose response, cytotoxicity control, cell-based, fluorescence, Alamar Blue, secondary assay (AID 2327); assay type: functional;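 note: NIH-3T3 mouse fibroblasts cultured with fluconazole at 8 µg/mL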
[8] = HepG2 cell cytotoxicity, dose response, cytotoxicity control for non-replicating M. tuberculosis project (AID 489018); assay type: functional; conditions: Mycobacterium tuberculosis
[9] = fluconazole-exposed Candida albicans growth modulators – fluorescence, retest, confirmation (AID 2467); assay type: functional, cell-based
HEK293 [10] = test: HEK293T cell viability loss, resazurin readout – resazurin fluorescence, cytotoxicity control for NF-kB activator project, SAR follow-up (AID 493251); assay type: functional, cell-based; conditions: Homo sapiens
Jurkat = test: SAR Analysis of small molecule inhibitors of T-cell specific antigen receptor-induced NF-kB activation in a Jurkat cell line using a luminescence assay - Set 2. [Related pubchem assays (depositor defined):AID435003, AID435012, AID465]; assay type: functional, cell-based; conditions: Homo sapiens
HEK293 [11] = test: SAR Analysis of small molecule inhibitors of T-cell specific antigen receptor-induced NF-kB activation in a HEK-293T cell line using a luminescence assay - Set 2. [Related pubchem assays (depositor defined):AID435003, AID435012, AID489026]; assay type: functional, cell-based; conditions: Homo sapiens
[12] = Vero E6 cell cytotoxicity, dose response, cytotoxicity control for non-replicating M. tuberculosis project, secondary assay (AID 492998); assay type: functional, VeroE6; conditions: Vero C1008
cells = assay type: functional
[13] = viability of uninfected HEp-2 cells – cell-based, HTS, cytotoxicity control for RSV inhibitor project, dose response (AID 2410); assay type: functional; conditions: human respiratory syncytial virus
[14] = target: G-protein coupled receptor 55 (Homo sapiens, UniProt Q9Y2T6); test: inhibition of LPI-stimulated GPR55 beta-arrestin translocation – imaging, U2OS, beta-arrestin-GFP, LPI agonist, primary screen (AID 2013); assay type: functional;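 note: antagonist potency measured as reduced agonist-driven arrestin aggregation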
[15] = viability loss of HMLE_sh_eGFP cells – cell-based, luminescence, counter-screen for HMLE_sh_ECad selective toxicity project, dose response (AID 463074); assay type: functional, Homo sapiens;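 note: HMLE human mammary epithelial cells expressing control shRNA against eGFP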
[16] = Luminescence Cell-Based Dose Retest to Confirm Inhibitors of Cancer Stem Cells. [Related pubchem assays (depositor defined):AID2717, AID2721]; assay type: functional, Homo sapiens; conditions: Homo sapiens
[17] = target: T4, Intestinal-type alkaline phosphatase (Homo sapiens, UniProt P09923); test: activation of human intestinal alkaline phosphatase – biochemical, dose response (AID 488873); assay type: functional
T4 sequence (P09923 whole entry): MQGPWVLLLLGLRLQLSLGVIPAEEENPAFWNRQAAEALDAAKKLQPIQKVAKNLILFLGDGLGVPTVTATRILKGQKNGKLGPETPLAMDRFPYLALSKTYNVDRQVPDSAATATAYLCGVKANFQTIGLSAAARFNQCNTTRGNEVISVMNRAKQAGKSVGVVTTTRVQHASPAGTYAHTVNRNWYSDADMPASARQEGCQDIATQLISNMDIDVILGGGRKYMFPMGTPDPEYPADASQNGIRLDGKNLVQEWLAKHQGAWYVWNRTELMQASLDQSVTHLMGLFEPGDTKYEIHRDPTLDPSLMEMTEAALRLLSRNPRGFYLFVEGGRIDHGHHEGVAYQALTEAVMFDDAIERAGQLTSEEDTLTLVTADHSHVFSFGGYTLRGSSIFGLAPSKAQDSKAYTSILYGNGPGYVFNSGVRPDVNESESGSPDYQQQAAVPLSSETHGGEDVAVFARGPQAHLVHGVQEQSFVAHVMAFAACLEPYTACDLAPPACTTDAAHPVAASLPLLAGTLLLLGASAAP

[18] = target: T4, Intestinal-type alkaline phosphatase; test: human intestinal alkaline phosphatase activators, dose response, biochemical, luminescence, uHTS hits (AID 463120); assay type: functional
[19] = target: T5, Intestinal-type alkaline phosphatase (Mus musculus, UniProt P24822); test: PubChem AID 488875; assay type: functional
T5 sequence (P24822 whole entry): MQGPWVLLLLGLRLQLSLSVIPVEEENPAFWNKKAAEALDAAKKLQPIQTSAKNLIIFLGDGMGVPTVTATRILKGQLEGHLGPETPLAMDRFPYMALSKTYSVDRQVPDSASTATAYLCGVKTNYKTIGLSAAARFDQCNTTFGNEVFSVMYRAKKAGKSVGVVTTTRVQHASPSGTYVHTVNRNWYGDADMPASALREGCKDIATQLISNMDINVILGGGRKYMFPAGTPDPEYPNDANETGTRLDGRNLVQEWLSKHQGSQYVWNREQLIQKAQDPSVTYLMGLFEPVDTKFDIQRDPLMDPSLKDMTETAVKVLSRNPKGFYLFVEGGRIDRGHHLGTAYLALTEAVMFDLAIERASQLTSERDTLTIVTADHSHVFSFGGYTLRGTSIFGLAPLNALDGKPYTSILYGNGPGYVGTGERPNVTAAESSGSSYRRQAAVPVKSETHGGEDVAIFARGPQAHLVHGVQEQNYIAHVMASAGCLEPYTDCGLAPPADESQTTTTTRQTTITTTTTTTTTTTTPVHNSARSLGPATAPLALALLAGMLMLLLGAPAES

[20] = target: T6, Alkaline phosphatase, tissue-nonspecific isozyme (Homo sapiens, UniProt P05186); test: TNAP enzyme inhibition by screening hits, dose response, selectivity assay for mouse IAP inhibitor project, biochemical, human TNAP, uHTS hits (AID 488906); assay type: functional
T6 sequence (P05186 whole entry): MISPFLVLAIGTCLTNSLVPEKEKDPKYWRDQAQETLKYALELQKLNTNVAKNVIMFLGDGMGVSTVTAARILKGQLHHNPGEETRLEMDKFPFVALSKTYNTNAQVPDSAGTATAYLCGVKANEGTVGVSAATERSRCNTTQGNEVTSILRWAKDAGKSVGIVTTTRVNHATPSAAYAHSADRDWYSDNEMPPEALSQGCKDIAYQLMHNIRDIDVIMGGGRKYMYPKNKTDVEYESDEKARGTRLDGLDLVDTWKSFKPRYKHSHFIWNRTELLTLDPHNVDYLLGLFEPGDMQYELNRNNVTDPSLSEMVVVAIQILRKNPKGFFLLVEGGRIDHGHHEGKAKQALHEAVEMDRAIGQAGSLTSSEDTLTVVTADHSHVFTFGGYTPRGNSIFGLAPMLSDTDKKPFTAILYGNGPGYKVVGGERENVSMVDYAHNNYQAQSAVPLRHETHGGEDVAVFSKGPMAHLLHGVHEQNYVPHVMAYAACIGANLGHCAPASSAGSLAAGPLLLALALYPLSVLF

[21] = target: T4, Intestinal-type alkaline phosphatase; test: activation of human intestinal alkaline phosphatase – biochemical, luminescent, uHTS hits, set 2, dose response (AID 488817); assay type: functional;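 note: potency of activators that raise enzyme activity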
[22] = target: T5, Intestinal-type alkaline phosphatase; test: PubChem AID 488785; assay type: functional
[23] = target: T6, Alkaline phosphatase, tissue-nonspecific isozyme; test: activation of tissue-nonspecific alkaline phosphatase – biochemical, TNAP isozyme, human IAP uHTS hits, selectivity assay for human IAP activator project, dose response (AID 488886); assay type: functional;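 note: potency of compounds raising TNAP activity as a selectivity check on IAP activators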
CAAX prenyl protease 1 = CAAX prenyl protease 1 (Saccharomyces cerevisiae S288c, UniProt P47154); test: yeast CAAX protease Ste24 inhibition – biochemical, S. cerevisiae, plate reader, cherry-pick, dose response (AID 488815)
[24] = target: Lysine-specific demethylase 4C (Homo sapiens, UniProt Q9H3R0); test: inhibition of JMJD2C H3K9me3 demethylation – biochemical, DELFIA europium, cherry-picked samples, dose response (AID 488835); assay type: functional
Chain of Lysine-specific demethylase 4C (Q9H3R0 whole entry): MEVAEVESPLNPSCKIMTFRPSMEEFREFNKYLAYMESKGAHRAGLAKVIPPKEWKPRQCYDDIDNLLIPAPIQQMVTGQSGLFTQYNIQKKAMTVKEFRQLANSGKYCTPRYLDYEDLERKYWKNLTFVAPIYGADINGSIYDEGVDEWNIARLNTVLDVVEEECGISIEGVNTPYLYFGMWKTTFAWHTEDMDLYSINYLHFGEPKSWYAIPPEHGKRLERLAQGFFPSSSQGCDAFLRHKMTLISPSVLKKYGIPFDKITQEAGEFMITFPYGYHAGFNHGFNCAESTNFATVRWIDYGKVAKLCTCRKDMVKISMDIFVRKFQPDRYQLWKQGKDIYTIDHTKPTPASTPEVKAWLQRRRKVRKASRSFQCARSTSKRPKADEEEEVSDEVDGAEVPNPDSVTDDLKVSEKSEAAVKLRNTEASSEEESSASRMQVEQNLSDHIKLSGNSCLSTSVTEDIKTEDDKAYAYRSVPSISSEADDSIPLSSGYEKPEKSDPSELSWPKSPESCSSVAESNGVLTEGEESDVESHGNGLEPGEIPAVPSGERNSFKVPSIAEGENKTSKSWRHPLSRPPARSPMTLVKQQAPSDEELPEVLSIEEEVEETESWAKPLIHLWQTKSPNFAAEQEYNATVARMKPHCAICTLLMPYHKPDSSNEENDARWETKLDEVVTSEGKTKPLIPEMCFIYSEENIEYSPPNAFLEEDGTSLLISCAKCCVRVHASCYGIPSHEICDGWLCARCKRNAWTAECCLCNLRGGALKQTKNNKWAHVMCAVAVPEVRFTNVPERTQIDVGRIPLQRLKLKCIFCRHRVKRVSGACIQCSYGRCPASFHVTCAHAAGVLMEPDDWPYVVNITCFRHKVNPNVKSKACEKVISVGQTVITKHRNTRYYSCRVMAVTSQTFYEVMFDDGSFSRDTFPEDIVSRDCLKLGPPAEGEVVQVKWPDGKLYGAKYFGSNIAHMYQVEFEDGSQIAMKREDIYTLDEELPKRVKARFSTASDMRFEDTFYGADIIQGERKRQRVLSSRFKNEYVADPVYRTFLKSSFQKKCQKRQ

[25] = target: Lysine-specific demethylase 4A (Homo sapiens, UniProt O75164); test: inhibition of JMJD2A H3K9me3 demethylation – biochemical, DELFIA europium, cherry-picked samples, selectivity assay for GASC-1 inhibitor project, dose response (AID 488840)
[26] = target: Sphingosine 1-phosphate receptor 1 (Homo sapiens, UniProt P21453); test: Fluorescence-based counterscreen assay for S1P4 agonists: Cell-based dose response high throughput screening assay to identify agonists of the Sphingosine 1-Phosphate Receptor 1 (S1P1). [Related pubchem assays (depositor defined):AID1509, AID1523, AID1801, AID463107, AID463118, AID463119, AID463122, AID463123, AID463129, AID463225, AID504400, AID504460]; assay type: functional
[27] = target: Sphingosine 1-phosphate receptor 4 (Homo sapiens, UniProt O95977); test: Fluorescence dose response cell-based high throughput screening assay for agonists of the Sphingosine 1-Phosphate Receptor 4 (S1P4). [Related pubchem assays: 1509 (Primary screen.), 1523 (Confirmation screen in triplicates.)]; assay type: functional
[28] = target: Voltage-dependent T-type calcium channel subunit alpha-1H (Homo sapiens, UniProt O95180); test: inhibition of CACNA1H calcium flux – cell-based, SynthLib3 library, HEK293 Cav3.2, fluorescence (AID 493041); assay type: functional
Chain of Voltage-dependent T-type calcium channel subunit alpha-1H (O95180 whole entry): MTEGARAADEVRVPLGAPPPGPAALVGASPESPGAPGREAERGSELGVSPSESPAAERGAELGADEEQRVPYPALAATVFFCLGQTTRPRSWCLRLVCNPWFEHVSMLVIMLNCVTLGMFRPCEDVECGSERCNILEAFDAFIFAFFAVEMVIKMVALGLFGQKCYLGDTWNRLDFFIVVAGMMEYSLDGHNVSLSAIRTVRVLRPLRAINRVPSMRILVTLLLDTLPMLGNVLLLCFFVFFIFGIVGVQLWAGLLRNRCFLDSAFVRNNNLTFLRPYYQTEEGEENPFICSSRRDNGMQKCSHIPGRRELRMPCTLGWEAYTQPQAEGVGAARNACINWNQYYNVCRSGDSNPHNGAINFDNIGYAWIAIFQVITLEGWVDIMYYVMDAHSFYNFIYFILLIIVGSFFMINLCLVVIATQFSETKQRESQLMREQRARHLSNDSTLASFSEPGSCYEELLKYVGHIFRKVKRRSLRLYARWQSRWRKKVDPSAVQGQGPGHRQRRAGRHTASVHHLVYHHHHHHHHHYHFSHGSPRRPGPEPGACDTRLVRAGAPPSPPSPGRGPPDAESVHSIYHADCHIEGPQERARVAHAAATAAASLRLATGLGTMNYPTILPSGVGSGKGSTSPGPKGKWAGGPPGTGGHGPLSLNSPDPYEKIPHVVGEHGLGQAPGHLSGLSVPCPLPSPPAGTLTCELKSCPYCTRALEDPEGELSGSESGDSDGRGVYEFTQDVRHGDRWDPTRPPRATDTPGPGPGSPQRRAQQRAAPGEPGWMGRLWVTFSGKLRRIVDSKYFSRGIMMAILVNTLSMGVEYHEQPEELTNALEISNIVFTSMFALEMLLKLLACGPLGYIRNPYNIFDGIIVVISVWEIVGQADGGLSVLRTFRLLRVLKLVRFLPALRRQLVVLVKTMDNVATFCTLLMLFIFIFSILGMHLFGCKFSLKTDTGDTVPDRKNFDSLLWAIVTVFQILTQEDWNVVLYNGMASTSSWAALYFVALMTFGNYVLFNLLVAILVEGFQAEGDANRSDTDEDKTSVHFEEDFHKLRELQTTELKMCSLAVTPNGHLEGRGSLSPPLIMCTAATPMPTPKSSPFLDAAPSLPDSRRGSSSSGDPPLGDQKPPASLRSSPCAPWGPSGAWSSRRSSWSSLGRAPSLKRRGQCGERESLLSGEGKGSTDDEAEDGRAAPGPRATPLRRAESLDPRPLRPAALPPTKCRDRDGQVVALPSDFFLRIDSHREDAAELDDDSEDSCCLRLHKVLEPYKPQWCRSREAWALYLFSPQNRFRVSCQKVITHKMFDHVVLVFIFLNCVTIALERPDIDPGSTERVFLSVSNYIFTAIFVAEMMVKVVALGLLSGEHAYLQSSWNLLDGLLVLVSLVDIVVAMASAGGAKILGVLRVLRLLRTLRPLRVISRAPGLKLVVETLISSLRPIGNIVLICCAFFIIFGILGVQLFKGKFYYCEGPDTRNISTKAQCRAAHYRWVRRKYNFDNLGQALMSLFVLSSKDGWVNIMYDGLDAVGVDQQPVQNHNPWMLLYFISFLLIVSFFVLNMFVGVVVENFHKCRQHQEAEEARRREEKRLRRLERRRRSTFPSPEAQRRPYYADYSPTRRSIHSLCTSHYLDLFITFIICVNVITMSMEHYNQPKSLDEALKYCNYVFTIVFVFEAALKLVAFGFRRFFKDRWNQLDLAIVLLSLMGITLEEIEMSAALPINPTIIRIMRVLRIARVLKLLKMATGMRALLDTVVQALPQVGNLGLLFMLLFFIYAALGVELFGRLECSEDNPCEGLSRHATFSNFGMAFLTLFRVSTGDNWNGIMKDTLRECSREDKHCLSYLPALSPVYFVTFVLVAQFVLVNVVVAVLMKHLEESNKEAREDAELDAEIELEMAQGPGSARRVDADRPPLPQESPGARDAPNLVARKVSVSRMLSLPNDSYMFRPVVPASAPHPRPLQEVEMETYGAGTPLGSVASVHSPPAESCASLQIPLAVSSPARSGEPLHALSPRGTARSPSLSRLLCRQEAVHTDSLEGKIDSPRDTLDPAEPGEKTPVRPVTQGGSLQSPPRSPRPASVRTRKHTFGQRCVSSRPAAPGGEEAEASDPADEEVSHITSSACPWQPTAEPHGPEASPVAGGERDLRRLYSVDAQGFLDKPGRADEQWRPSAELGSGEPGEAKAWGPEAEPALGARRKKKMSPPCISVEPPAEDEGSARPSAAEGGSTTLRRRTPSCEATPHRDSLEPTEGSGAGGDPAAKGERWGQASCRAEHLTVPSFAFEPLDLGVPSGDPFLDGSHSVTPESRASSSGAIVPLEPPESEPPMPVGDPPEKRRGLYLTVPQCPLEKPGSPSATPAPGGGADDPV

## CC1=N/C(=C\c2ccc([N+](=O)[O-])cc2)C(=O)N1c1ccc(Cl)cc1
Cytochrome P450 2C19
  AC50: inconclusive
Cytochrome P450 2D6
  AC50: inconclusive

## CC1CCCN(C(=O)Cc2cn(Cc3cccc(Cl)c3)c3ccccc23)C1 (configuration not stated)
[1]
  EC50: 2.81 µM (active)
[2]
  EC50: 1.79 µM (active)
[3]
  EC50: > 60 µM (not active)
[4]
  EC50: 2.81 µM (active)

## O=C(c1ccc2c(c1)N(Cc1ccc(F)cc1)C(=O)CS2)N1CCOCC1
Cytochrome P450 3A4
  AC50: 25.1 µM (inconclusive)
Cytochrome P450 1A2
  AC50: inconclusive

## O=C1C(c2ccncc2)N(CCC2=CCCCC2)C(=O)CN1C1CCCCC1 (configuration not stated)
Coagulation factor XII
  IC50: > 50 µM (inactive)

## Cc1cc(C)n(C(=O)c2sc3cc(F)ccc3c2Cl)n1
Integrin alpha-L
  EC50: 0.299 µM (active)

## COC(=O)CCCC1=CC2=CC(=O)C(C)(OC(=O)c3cccs3)C(=O)C2=CN1C1CCCCC1 (configuration not stated)
[5]
  EC50: > 100 µM (inactive)

## Cc1ccc(NC(=O)c2ccc([N+](=O)[O-])o2)cc1C
[6]
  CC50: 16.2 µM (active)
[7]
  EC50: 14.2 µM (active)
[8]
  CC50: 15.1 µM (active)
[9]
  EC50: 1.87 µM (active)
HEK293 [10]
  IC50: 47.3 µM (inactive)
Jurkat
  IC50: 6.86 µM (active)
HEK293 [11]
  IC50: 38.6 µM (inactive)
[12]
  CC50: 6.87 µM (active)
cells
  IC50: 0.7 µM (active)

## COc1ccc(-c2csc(Nc3ccc(S(=O)(=O)Nc4cc(OC)nc(OC)n4)cc3)n2)cc1
[13]
  CC50: 15.2 µM (active)
[14]
  IC50: 4.76 µM (active)

## CCC(C(=O)Nc1cc(OC)c(NC(=O)c2ccccc2)cc1OC)c1ccccc1 (configuration not stated)
[15]
  AC50: 51.9 µM (active)
[16]
  AC50: 4.24 µM (active)

## CCn1nc(C)c(CN2CCC(C(=O)Nc3cccc(-c4cccc(F)c4)c3)CC2)c1C
[17]
  EC50: > 100 µM (inactive)
[18]
  EC50: 59.8 µM (active)
[19]
  EC50: 49.9 µM (active)
[20]
  IC50: 23.4 µM (active)
[21]
  EC50: 52.9 µM (active)
[22]
  IC50: 8.35 µM (active)
[23]
  EC50: 54 µM (active)

## CCN=C(S)NNC(=O)CCn1cc(C)cn1
CAAX prenyl protease 1
  AC50: 32.4 µM (active)

## Cn1c(=O)c2nc(O)cnc2n(C)c1=S
[24]
  AC50: 4.26 µM (active)
[25]
  AC50: 45.3 µM (active)

## CNC(=O)c1[nH]cnc1C(=O)N[C@@H](CC(C)C)C(=O)OCc1ccccc1
[26]
  EC50: 22 µM (inactive)
[27]
  EC50: 5.27 µM (active)

## CC(Cc1nnc(NC(=O)COc2ccc(Cl)cc2Cl)o1)CC(C)(C)C (configuration not stated)
[28]
  EC50: 10 µM (active)
